Assay results taken from patent US20070197512A1, “Carboxylic Acid Compounds and Use Thereof” (Japan Tobacco Inc., priority 2006, published 2007).

target: T1, human URAT1 (Homo sapiens, UniProt Q96S37); assay: Uric acid transport inhibitory test using human URAT1-expressing cells; assay type: cell-based; settings: human URAT1-expressing HEK293 cells, 14C-uric acid 50 μM, uptake 5 min, room temperature; read-out: hURAT1 IC50
T1 construct: Human URAT1 full length cDNA was subcloned to expression vector pcDNA3.1; expressed in transfected cells; host or cells: HEK293 cells (pcDNA3.1, geneticin-selected)
T1 sequence (Q96S37 1-553): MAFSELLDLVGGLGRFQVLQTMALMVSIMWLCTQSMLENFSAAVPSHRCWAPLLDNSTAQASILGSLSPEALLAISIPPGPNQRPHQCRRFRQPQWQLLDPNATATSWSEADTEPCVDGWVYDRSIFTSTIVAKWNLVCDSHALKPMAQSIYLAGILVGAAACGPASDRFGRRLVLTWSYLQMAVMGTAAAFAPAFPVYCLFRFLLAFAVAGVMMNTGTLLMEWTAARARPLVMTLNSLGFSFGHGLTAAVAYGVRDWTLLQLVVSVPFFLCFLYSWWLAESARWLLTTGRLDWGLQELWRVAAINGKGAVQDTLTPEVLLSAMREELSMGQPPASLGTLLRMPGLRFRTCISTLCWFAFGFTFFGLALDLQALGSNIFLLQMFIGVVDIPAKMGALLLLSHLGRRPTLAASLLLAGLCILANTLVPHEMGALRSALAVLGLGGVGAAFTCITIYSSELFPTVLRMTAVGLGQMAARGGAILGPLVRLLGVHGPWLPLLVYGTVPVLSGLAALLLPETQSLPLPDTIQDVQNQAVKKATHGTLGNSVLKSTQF
From the text: Experimental Example 1 Uric Acid Transport Inhibitory Test Using Human URAT1-Expressing Cells
Human URAT1 full length cDNA was subcloned to expression vector pcDNA3.1 and human URAT1 gene was transfected into human embryonic kidney derived cell line (HEK293 cells) by liposome method using Lipofectamine2000. Simultaneously, HEK293 cells transfected with expression vector pcDNA3.1 alone (hereinafter mock cells) were also produced. HEK293 cells expressing human URAT1 gene or mock cells were selected with geneticin resistance as an index. The functional expression of human URAT1 gene was confirmed by a method similar to the following method, using ^14C-uric acid transport into the cells as an index.
Human URAT1-expressing HEK293 cells or mock cells were cultured in Dulbecco's modified Eagle's MEM medium (high glucose) containing 10% fetal bovine serum, 0.5 mg/mL geneticin sulfate, 100 units/mL penicillin and 100 μg/mL streptomycin under the conditions of 37° C. and 5% CO2 in an incubator. The cells were plated in a 96 well plate (poly-D-Lysine coated) at 1×10^5 cells/well and the following uric acid transport inhibitory test was performed 24 hr later. This test was performed at room temperature.
After the medium was removed by aspiration from each well, the cells were washed once with Hank's Balanced Salt Solution (HBSS) and preincubated with HBSS (100 μL/well) for 5 min. HBSS was aspirated and an assay buffer (wherein NaCl in the above-mentioned HBSS had been substituted with Na-gluconate) containing various concentrations of the Example compound and a radioactive ligand (14C-uric acid; final concentration 50 μM) was added to each well at 50 μL/well and an uptake reaction was carried out for 5 min. After the reaction, the cells were washed twice with ice-cold HBSS (150 μL/well), and Microscinti™ 20 (PerkinElmer) was added at 50 μL/well. The cells were lysed by stirring and the radioactivity of each well was measured by a liquid scintillation counter (TOP COUNT, Packard).
The uric acid transport rate (%) of the Example compound at each concentration was calculated relative to the radioactivity (difference in radioactivity between human URAT1-expressing HEK293 cells and mock cells without addition of Example compound (DMSO addition)) showing URAT1 specific uric acid transport as 100%, and the concentration (IC50) of the Example compound necessary for inhibiting the uric acid transport rate by 50% was determined. In Table 24-Table 27, “+++” means IC50 value of less than 300 nM, “++” means IC50 value of 300 nM to less than 3000 nM, and “+” means IC50 value of not less than 3000 nM.

| SMILES | IC50 |
| --- | --- |
| CC(C)c1cccc2c1OC(c1ccccc1)CN2C(=O)/C=C/C(=O)O (stereo not drawn) [Example 45, (E)-4-(8-isopropyl-2-phenyl-2,3-dihydrobenzo[1,4]oxazin-4-yl)-4-oxo-2-butenoic acid] | 0.3 to 3 µM |
| CC(C)(C)c1cccc2c1OC(c1ccccc1)C(=O)N2CCC(=O)O (stereo not drawn) [Example 49, 3-(8-tert-butyl-3-oxo-2-phenyl-2,3-dihydrobenzo[1,4]oxazin-4-yl)propionic acid] | 0.3 to 3 µM |
| CC(C)C1Oc2c(C3CCCCC3)cccc2N(CCC(=O)O)C1=O (stereo not drawn) [Example 50, 3-(8-cyclohexyl-2-isopropyl-3-oxo-2,3-dihydrobenzo[1,4]oxazin-4-yl)propionic acid] | ≥ 3 µM |
| CC(C)C1CN(C(=O)/C=C/C(=O)O)c2cccc(C(C)(C)C)c2O1 (stereo not drawn) [Example 52, (E)-4-(8-tert-butyl-2-isopropyl-2,3-dihydrobenzo[1,4]oxazin-4-yl)-4-oxo-2-butenoic acid] | ≥ 3 µM |
| Cc1ccc2c(c1)OC(c1ccccc1)CN2C(=O)/C=C/C(=O)O (stereo not drawn) [Example 57, (E)-4-(7-methyl-2-phenyl-2,3-dihydrobenzo[1,4]oxazin-4-yl)-4-oxo-2-butenoic acid] | ≥ 3 µM |
| CCc1cccc2c1OC(c1ccccc1)C(=O)N2CCC(=O)O (stereo not drawn) [Example 59, 3-(8-ethyl-3-oxo-2-phenyl-2,3-dihydrobenzo[1,4]oxazin-4-yl)propionic acid] | 0.3 to 3 µM |
| CCc1cccc2c1OC(C(C)C)CN2C(=O)/C=C/C(=O)O (stereo not drawn) [Example 60, (E)-4-(8-ethyl-2-isopropyl-2,3-dihydrobenzo[1,4]oxazin-4-yl)-4-oxo-2-butenoic acid] | 0.3 to 3 µM |
| O=C(O)CCN1C(=O)C(c2ccccc2)Oc2c(Br)cccc21 (stereo not drawn) [Example 66, 3-(8-bromo-3-oxo-2-phenyl-2,3-dihydrobenzo[1,4]oxazin-4-yl)propionic acid] | 0.3 to 3 µM |
| CCC1CN(C(=O)/C=C/C(=O)O)c2cccc(C(C)C)c2O1 (stereo not drawn) [Example 67, (E)-4-(2-ethyl-8-isopropyl-2,3-dihydrobenzo[1,4]oxazin-4-yl)-4-oxo-2-butenoic acid] | 0.3 to 3 µM |
| CC(C)C1CN(C(=O)/C=C/C(=O)O)c2ccc(Cl)cc2O1 (stereo not drawn) [Example 68, (E)-4-(7-chloro-2-isopropyl-2,3-dihydrobenzo[1,4]oxazin-4-yl)-4-oxo-2-butenoic acid] | 0.3 to 3 µM |
| O=C(O)/C=C/C(=O)N1CC(c2ccccc2)Oc2cc(Cl)ccc21 (stereo not drawn) [Example 70, (E)-4-(7-chloro-2-phenyl-2,3-dihydrobenzo[1,4]oxazin-4-yl)-4-oxo-2-butenoic acid] | ≥ 3 µM |
| O=C(O)/C=C/C(=O)N1CC(c2ccccc2)Oc2ccc(Cl)cc21 (stereo not drawn) [Example 71, (E)-4-(6-chloro-2-phenyl-2,3-dihydrobenzo[1,4]oxazin-4-yl)-4-oxo-2-butenoic acid] | ≥ 3 µM |
| O=C(O)CCN1C(=O)C(c2ccccc2)Oc2cc(Cl)ccc21 (stereo not drawn) [Example 76, 3-(7-chloro-3-oxo-2-phenyl-2,3-dihydrobenzo[1,4]oxazin-4-yl)propionic acid] | ≥ 3 µM |
| O=C(O)CCN1C(=O)C(c2ccccc2)Oc2ccc(Cl)cc21 (stereo not drawn) [Example 77, 3-(6-chloro-3-oxo-2-phenyl-2,3-dihydrobenzo[1,4]oxazin-4-yl)propionic acid] | ≥ 3 µM |
| CC(C)C1CN(C(=O)/C=C/C(=O)O)c2cccc(Br)c2O1 (stereo not drawn) [Example 78, (E)-4-(8-bromo-2-isopropyl-2,3-dihydrobenzo[1,4]oxazin-4-yl)-4-oxo-2-butenoic acid] | ≥ 3 µM |
| CC(C)C1CN(C(=O)/C=C/C(=O)O)c2cccc(C3CCCCC3)c2O1 (stereo not drawn) [Example 79, (E)-4-(8-cyclohexyl-2-isopropyl-2,3-dihydrobenzo[1,4]oxazin-4-yl)-4-oxo-2-butenoic acid] | ≥ 3 µM |
| Cc1cc(C)c2c(c1)N(C(=O)/C=C/C(=O)O)CCO2 [Example 85, (E)-4-(6,8-dimethyl-2,3-dihydrobenzo[1,4]oxazin-4-yl)-4-oxo-2-butenoic acid] | ≥ 3 µM |

Now from value to compound:

| IC50 | SMILES |
| --- | --- |
| < 0.3 µM | Cc1cccc2c1OC(C(C)C)C(=O)N2CCC(=O)O (stereo not drawn) [Example 44, 3-(2-isopropyl-8-methyl-3-oxo-2,3-dihydrobenzo[1,4]oxazin-4-yl)propionic acid] |
| ≥ 3 µM | CC(C)C1Oc2c(cccc2C(C)(C)C)N(CCC(=O)O)C1=O (stereo not drawn) [Example 46, 3-(8-tert-butyl-2-isopropyl-3-oxo-2,3-dihydrobenzo[1,4]oxazin-4-yl)propionic acid] |
| 0.3 to 3 µM | Cc1cccc2c1OC(c1ccccc1)C(=O)N2CCC(=O)O (stereo not drawn) [Example 47, 3-(8-methyl-3-oxo-2-phenyl-2,3-dihydrobenzo[1,4]oxazin-4-yl)propionic acid] |
| ≥ 3 µM | Cc1ccc2c(c1)OC(c1ccccc1)C(=O)N2CCC(=O)O (stereo not drawn) [Example 48, 3-(7-methyl-3-oxo-2-phenyl-2,3-dihydrobenzo[1,4]oxazin-4-yl)propionic acid] |
| 0.3 to 3 µM | CC(C)C1Oc2c(Br)cccc2N(CCC(=O)O)C1=O (stereo not drawn) [Example 51, 3-(8-bromo-2-isopropyl-3-oxo-2,3-dihydrobenzo[1,4]oxazin-4-yl)propionic acid] |
| 0.3 to 3 µM | CCc1cccc2c1OC(C(C)C)C(=O)N2CCC(=O)O (stereo not drawn) [Example 53, 3-(8-ethyl-2-isopropyl-3-oxo-2,3-dihydrobenzo[1,4]oxazin-4-yl)propionic acid] |
| 0.3 to 3 µM | Cc1ccc2c(c1)N(CCC(=O)O)C(=O)C(C(C)C)O2 (stereo not drawn) [Example 58, 3-(2-isopropyl-6-methyl-3-oxo-2,3-dihydrobenzo[1,4]oxazin-4-yl)propionic acid] |
| < 0.3 µM | Cc1cc(C)c2c(c1)N(CCC(=O)O)C(=O)C(C(C)C)O2 (stereo not drawn) [Example 61, 3-(2-isopropyl-6,8-dimethyl-3-oxo-2,3-dihydrobenzo[1,4]oxazin-4-yl)propionic acid] |
| 0.3 to 3 µM | CC(C)C1Oc2cc(Cl)ccc2N(CCC(=O)O)C1=O (stereo not drawn) [Example 62, 3-(7-chloro-2-isopropyl-3-oxo-2,3-dihydrobenzo[1,4]oxazin-4-yl)propionic acid] |
| < 0.3 µM | CC(C)C1Oc2ccc(Cl)cc2N(CCC(=O)O)C1=O (stereo not drawn) [Example 63, 3-(6-chloro-2-isopropyl-3-oxo-2,3-dihydrobenzo[1,4]oxazin-4-yl)propionic acid] |
| < 0.3 µM | Cc1cc(C)c2c(c1)N(CCC(=O)O)C(=O)C(c1ccccc1)O2 (stereo not drawn) [Example 72, 3-(6,8-dimethyl-3-oxo-2-phenyl-2,3-dihydrobenzo[1,4]oxazin-4-yl)propionic acid] |
| 0.3 to 3 µM | Cc1ccc2c(c1)N(CCC(=O)O)C(=O)C(c1ccccc1)O2 (stereo not drawn) [Example 75, 3-(6-methyl-3-oxo-2-phenyl-2,3-dihydrobenzo[1,4]oxazin-4-yl)propionic acid] |
| < 0.3 µM | CC(C)C1Oc2c(Cl)cc(Cl)cc2N(CCC(=O)O)C1=O (stereo not drawn) [Example 80, 3-(6,8-dichloro-2-isopropyl-3-oxo-2,3-dihydrobenzo[1,4]oxazin-4-yl)propionic acid] |
| < 0.3 µM | Cc1cc(Cl)cc2c1OC(C(C)C)C(=O)N2CCC(=O)O (stereo not drawn) [Example 81, 3-(6-chloro-2-isopropyl-8-methyl-3-oxo-2,3-dihydrobenzo[1,4]oxazin-4-yl)propionic acid] |
| ≥ 3 µM | Cc1cc(C)c2c(c1)N(CCC(=O)O)C(=O)CO2 [Example 82, 3-(6,8-dimethyl-3-oxo-2,3-dihydrobenzo[1,4]oxazin-4-yl)propionic acid] |
| ≥ 3 µM | Cc1cc(C)c2c(c1)N(CCC(=O)O)C(=O)C(C)O2 (stereo not drawn) [Example 86, 3-(2,6,8-trimethyl-3-oxo-2,3-dihydrobenzo[1,4]oxazin-4-yl)propionic acid] |
